Results from PubChem BioAssay (NCI).
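These data come from cells grown in 96-well plates and exposed to compound for 48 hours at five concentrations. GI50 = concentration required for 50% inhibition of growth. At the TGI there is no net growth.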

Assays:
Test in all cases: NCI-60 cell line screen, 48 h
EKVX NSCLC = test system: EKVX NSCLC
M14 melanoma = test system: M14 melanoma
MOLT-4 leukemia = test system: MOLT-4 leukemia
MALME-3M melanoma = test system: MALME-3M melanoma
HS 578T breast = test system: HS 578T breast
U251 CNS = test system: U251 CNS
KM12 colon = test system: KM12 colon
MCF7 breast = test system: MCF7 breast
SF-539 CNS = test system: SF-539 CNS
SK-MEL-2 melanoma = test system: SK-MEL-2 melanoma
T-47D breast = test system: T-47D breast
SF-295 CNS = test system: SF-295 CNS
MDA-MB-468 breast = test system: MDA-MB-468 breast
K-562 leukemia = test system: K-562 leukemia
BT-549 breast = test system: BT-549 breast
SK-MEL-5 melanoma = test system: SK-MEL-5 melanoma
RXF 393 renal = test system: RXF 393 renal
DU-145 prostate = test system: DU-145 prostate
A549 NSCLC = test system: A549 NSCLC
MDA-MB-435 = test system: MDA-MB-435
UACC-257 melanoma = test system: UACC-257 melanoma
OVCAR-8 ovarian = test system: OVCAR-8 ovarian
NCI-H23 lung = test system: NCI-H23 lung
NCI-H226 lung = test system: NCI-H226 lung
NCI/ADR-RES ovarian = test system: NCI/ADR-RES ovarian
HOP-92 NSCLC = test system: HOP-92 NSCLC
SK-OV-3 ovarian = test system: SK-OV-3 ovarian
TK-10 renal = test system: TK-10 renal
SNB-75 CNS = test system: SNB-75 CNS
UACC-62 melanoma = test system: UACC-62 melanoma
MDA-MB-231 breast = test system: MDA-MB-231 breast
OVCAR-4 ovarian = test system: OVCAR-4 ovarian
COLO 205 colon = test system: COLO 205 colon
SN12C renal = test system: SN12C renal
SK-MEL-28 melanoma = test system: SK-MEL-28 melanoma
A498 renal = test system: A498 renal
HOP-62 NSCLC = test system: HOP-62 NSCLC
PC-3 prostate = test system: PC-3 prostate
UO-31 renal = test system: UO-31 renal
CAKI-1 renal = test system: CAKI-1 renal
SF-268 CNS = test system: SF-268 CNS
IGROV1 ovarian = test system: IGROV1 ovarian
SNB-19 CNS = test system: SNB-19 CNS
NCI-H522 lung = test system: NCI-H522 lung
OVCAR-5 ovarian = test system: OVCAR-5 ovarian
ACHN renal = test system: ACHN renal
NCI-H460 lung = test system: NCI-H460 lung

Cn1cc(-c2cc(N)n3nc(-c4c[nH]c5ccccc45)cc3n2)c2cccnc21
GI50 (EKVX NSCLC): 15.3 µM | TGI (EKVX NSCLC): > 100 µM | GI50 (M14 melanoma): 2.63 µM | TGI (M14 melanoma): 6.79 µM | GI50 (MOLT-4 leukemia): 3.32 µM | TGI (MOLT-4 leukemia): > 100 µM | GI50 (MALME-3M melanoma): 3.25 µM | TGI (MALME-3M melanoma): 17.1 µM | GI50 (HS 578T breast): 20 µM | TGI (HS 578T breast): > 100 µM | GI50 (U251 CNS): 3.34 µM | TGI (U251 CNS): > 100 µM | GI50 (KM12 colon): 3.34 µM | TGI (KM12 colon): 14.7 µM | GI50 (MCF7 breast): 3.3 µM | TGI (MCF7 breast): > 100 µM | GI50 (SF-539 CNS): 2.58 µM | TGI (SF-539 CNS): 7.31 µM | GI50 (SK-MEL-2 melanoma): 12.5 µM | TGI (SK-MEL-2 melanoma): 43.1 µM | GI50 (T-47D breast): 2.99 µM | TGI (T-47D breast): 13.1 µM | GI50 (SF-295 CNS): 1.99 µM | TGI (SF-295 CNS): 4.74 µM | GI50 (MDA-MB-468 breast): 2.22 µM | TGI (MDA-MB-468 breast): 6.42 µM | GI50 (K-562 leukemia): 2.79 µM | TGI (K-562 leukemia): > 100 µM | GI50 (BT-549 breast): 11.8 µM | TGI (BT-549 breast): 33.6 µM | GI50 (SK-MEL-5 melanoma): 7.04 µM | TGI (SK-MEL-5 melanoma): 20.5 µM | GI50 (RXF 393 renal): 2.28 µM | TGI (RXF 393 renal): 8.2 µM | GI50 (DU-145 prostate): 5.09 µM | TGI (DU-145 prostate): > 100 µM | GI50 (A549 NSCLC): 4.19 µM | TGI (A549 NSCLC): > 100 µM | GI50 (MDA-MB-435): 11 µM | TGI (MDA-MB-435): 29.5 µM | GI50 (UACC-257 melanoma): 13.7 µM | TGI (UACC-257 melanoma): 33.5 µM | GI50 (OVCAR-8 ovarian): 4.63 µM | TGI (OVCAR-8 ovarian): > 100 µM | GI50 (NCI-H23 lung): 19 µM | TGI (NCI-H23 lung): 73.6 µM | GI50 (NCI-H226 lung): 14.1 µM | TGI (NCI-H226 lung): > 100 µM | GI50 (NCI/ADR-RES ovarian): 4.66 µM | TGI (NCI/ADR-RES ovarian): > 100 µM | GI50 (HOP-92 NSCLC): 5.81 µM | TGI (HOP-92 NSCLC): 27.8 µM | GI50 (SK-OV-3 ovarian): 20.6 µM | TGI (SK-OV-3 ovarian): 69.5 µM | GI50 (TK-10 renal): 17.1 µM | TGI (TK-10 renal): 59.3 µM | GI50 (SNB-75 CNS): 2.44 µM | TGI (SNB-75 CNS): 44.2 µM | GI50 (UACC-62 melanoma): 5.71 µM | TGI (UACC-62 melanoma): 21.7 µM | GI50 (MDA-MB-231 breast): 3.4 µM | TGI (MDA-MB-231 breast): 28.8 µM | GI50 (OVCAR-4 ovarian): 3.42 µM | TGI (OVCAR-4 ovarian): > 100 µM | GI50 (COLO 205 colon): 10.7 µM | TGI (COLO 205 colon): 45.1 µM | GI50 (SN12C renal): 11.6 µM | TGI (SN12C renal): 42.1 µM | GI50 (SK-MEL-28 melanoma): 5.33 µM | TGI (SK-MEL-28 melanoma): 20.2 µM | GI50 (A498 renal): 23 µM | TGI (A498 renal): 54.8 µM | GI50 (HOP-62 NSCLC): 6.15 µM | TGI (HOP-62 NSCLC): 59.7 µM | GI50 (PC-3 prostate): 3.83 µM | TGI (PC-3 prostate): 23.6 µM | GI50 (UO-31 renal): 5.41 µM | TGI (UO-31 renal): 26.6 µM | GI50 (CAKI-1 renal): 3.85 µM | TGI (CAKI-1 renal): 44.8 µM | GI50 (SF-268 CNS): 17.9 µM | TGI (SF-268 CNS): 81.9 µM | GI50 (IGROV1 ovarian): 19.1 µM | TGI (IGROV1 ovarian): 55.9 µM | GI50 (SNB-19 CNS): 14.8 µM | TGI (SNB-19 CNS): 31.4 µM | GI50 (NCI-H522 lung): 5.54 µM | TGI (NCI-H522 lung): 35.9 µM | GI50 (OVCAR-5 ovarian): 11 µM | TGI (OVCAR-5 ovarian): 39.1 µM | GI50 (ACHN renal): 3.77 µM | TGI (ACHN renal): 21.1 µM | GI50 (NCI-H460 lung): 3.56 µM | TGI (NCI-H460 lung): > 100 µM
